This is an account of results in ChEMBL document CHEMBL1201862, “PubChem BioAssay data set” (2004).

Active and inactive are the calls of the source.

For orientation: IC50 means the concentration needed to halve the response being measured. By EC50 is commonly meant the midpoint of the concentration-response curve. What is called AC50 is the concentration giving half of the maximal activity seen. As a reminder, the CC50 is the concentration that lowers cell viability or growth by half.

Test [1] addresses T1, Mannose-6-phosphate isomerase (Homo sapiens, UniProt P34949).
T1 sequence (P34949 whole entry): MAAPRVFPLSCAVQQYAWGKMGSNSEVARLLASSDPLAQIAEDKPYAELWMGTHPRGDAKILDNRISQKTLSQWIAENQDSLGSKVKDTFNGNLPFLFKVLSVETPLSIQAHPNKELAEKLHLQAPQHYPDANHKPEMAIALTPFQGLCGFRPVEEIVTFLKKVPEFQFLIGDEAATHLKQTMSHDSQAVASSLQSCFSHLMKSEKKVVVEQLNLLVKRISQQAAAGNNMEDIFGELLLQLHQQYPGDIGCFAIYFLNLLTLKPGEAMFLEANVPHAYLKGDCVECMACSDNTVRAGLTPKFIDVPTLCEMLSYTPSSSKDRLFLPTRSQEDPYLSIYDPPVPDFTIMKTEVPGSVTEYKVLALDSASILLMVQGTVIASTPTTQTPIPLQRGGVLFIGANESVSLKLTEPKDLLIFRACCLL
The test is described as follows: MPI enzyme activity inhibition – biochemical, fluorescence intensity, coupled assay, primary screen (AID 1209).

Test [2] is described as follows: A cytotoxicity screen of small molecule inhibitors of the PhoP region in Salmonella typhi identified in the primary screen. [Related pubchem assays: 1850, 1864, 1985 ]. The format is functional.
The target in test [3] is T2, Peroxisome proliferator-activated receptor gamma/Nuclear receptor coactivator 3 (Homo sapiens, UniProt P37231). The format is functional.
T2 sequence (P37231 whole entry): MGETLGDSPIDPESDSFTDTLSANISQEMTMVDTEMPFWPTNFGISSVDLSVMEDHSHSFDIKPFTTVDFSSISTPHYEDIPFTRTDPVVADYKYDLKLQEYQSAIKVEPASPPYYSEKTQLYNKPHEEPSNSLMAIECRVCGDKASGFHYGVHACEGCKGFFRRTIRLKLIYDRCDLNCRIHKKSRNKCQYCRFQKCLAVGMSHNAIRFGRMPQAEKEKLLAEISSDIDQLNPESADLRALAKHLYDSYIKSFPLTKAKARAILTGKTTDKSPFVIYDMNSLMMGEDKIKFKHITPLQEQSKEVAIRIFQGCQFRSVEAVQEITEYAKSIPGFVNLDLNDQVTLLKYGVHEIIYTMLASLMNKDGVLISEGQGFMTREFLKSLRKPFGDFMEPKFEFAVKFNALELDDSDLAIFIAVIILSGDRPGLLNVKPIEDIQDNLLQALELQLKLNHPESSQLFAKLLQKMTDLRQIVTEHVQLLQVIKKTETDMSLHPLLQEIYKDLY
T2 sequence (Q9Y6Q9 whole entry, further chain): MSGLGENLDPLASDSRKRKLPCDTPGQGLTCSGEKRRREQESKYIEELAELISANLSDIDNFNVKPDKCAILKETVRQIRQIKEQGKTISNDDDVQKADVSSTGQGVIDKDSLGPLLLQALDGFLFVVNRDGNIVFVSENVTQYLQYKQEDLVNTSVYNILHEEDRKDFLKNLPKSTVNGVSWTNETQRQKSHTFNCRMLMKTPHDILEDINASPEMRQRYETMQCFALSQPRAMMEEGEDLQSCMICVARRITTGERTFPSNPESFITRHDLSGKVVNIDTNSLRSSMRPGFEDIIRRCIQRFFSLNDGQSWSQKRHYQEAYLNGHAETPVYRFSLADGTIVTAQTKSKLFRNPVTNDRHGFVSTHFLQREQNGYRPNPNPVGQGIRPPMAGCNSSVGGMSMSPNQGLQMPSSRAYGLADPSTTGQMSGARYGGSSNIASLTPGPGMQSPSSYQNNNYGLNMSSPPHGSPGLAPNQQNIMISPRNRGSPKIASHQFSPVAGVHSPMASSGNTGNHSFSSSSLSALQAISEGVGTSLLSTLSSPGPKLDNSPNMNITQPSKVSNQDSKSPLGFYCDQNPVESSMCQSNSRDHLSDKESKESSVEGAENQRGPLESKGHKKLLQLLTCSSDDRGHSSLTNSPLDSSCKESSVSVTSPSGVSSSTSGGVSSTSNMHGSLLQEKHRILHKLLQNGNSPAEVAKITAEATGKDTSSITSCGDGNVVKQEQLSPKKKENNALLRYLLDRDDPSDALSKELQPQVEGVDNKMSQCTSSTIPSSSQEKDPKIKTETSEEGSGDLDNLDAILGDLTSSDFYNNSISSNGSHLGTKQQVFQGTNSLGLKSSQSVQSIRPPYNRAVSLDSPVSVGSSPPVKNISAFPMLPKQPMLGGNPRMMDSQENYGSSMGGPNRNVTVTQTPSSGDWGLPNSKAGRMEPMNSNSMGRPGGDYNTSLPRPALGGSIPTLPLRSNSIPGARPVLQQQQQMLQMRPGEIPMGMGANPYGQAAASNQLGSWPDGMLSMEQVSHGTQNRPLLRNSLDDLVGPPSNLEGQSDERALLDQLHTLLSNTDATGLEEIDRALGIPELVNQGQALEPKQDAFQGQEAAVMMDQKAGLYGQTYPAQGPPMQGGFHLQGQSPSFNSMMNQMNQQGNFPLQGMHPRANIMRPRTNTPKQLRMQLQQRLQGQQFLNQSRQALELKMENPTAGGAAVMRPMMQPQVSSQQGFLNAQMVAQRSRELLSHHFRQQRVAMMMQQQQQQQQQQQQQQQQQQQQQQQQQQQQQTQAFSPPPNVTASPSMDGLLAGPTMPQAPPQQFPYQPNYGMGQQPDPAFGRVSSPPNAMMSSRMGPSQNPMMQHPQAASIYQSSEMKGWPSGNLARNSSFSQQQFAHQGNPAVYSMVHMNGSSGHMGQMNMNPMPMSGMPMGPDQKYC
Test [4] addresses T3, Peroxisome proliferator-activated receptor gamma/Nuclear receptor coactivator 2 (Homo sapiens, UniProt P37231). It counts as functional.
The target in test [5] is T4, Peroxisome proliferator-activated receptor gamma/Nuclear receptor coactivator 1 (Homo sapiens, UniProt P37231). It counts as functional.
Test [6] can be described thus: HEK-293T viability loss after treatment – luminescence, T-cell screen hits, cytotoxicity control for TCR NF-kB inhibitor project, dose response (AID 489026).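 Also: cells exposed to compound about 14 hours before the viability readout.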 It counts as functional, cell-based.
Test [7] has as its system HEK293. Nature of the test: cells. To be noted: Homo sapiens.
For test [8], the system named is HEK293. The test is described as follows: cells. To be noted: Homo sapiens. The source holds these as a separate data set.
Test [9] in a line: Luminescence Cell-Based Dose Retest to Confirm Inhibitors of Cancer Stem Cells. [Related pubchem assays (depositor defined):AID2717, AID2721]. To be noted: Homo sapiens. The format is functional.
The target in test [10] is T5, Protein Tat (Human immunodeficiency virus type 1 group M subtype B (isolate HXB2)(HIV-1), UniProt P04608).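 Also: tat binding to TAR RNA read out by fluorescence polarization.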
T5 sequence (P04608 whole entry): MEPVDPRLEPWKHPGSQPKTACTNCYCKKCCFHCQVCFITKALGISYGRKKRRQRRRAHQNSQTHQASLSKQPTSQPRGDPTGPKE
It counts as functional.

The nature of test [11]: viability loss in THP-1 monocytes – THP-1 cells, cytotoxicity control for Vif-APOBEC3G degradation inhibitor project, dose response (AID 1117359). The format is functional. Particulars: THP-1.
Test [12] addresses T3, Peroxisome proliferator-activated receptor gamma/Nuclear receptor coactivator 2. The test is described as follows: TR-FRET dose response biochemical High Throughput Screening assay for agonists of the steroid receptor coactivator 2 (SRC-2) recruitment by the peroxisome proliferator-activated receptor gamma (PPAR gamma): non-selective agonists. [Related pubchem assays: 1297, 1032 ]. It counts as functional. On the technique in general: Time-resolved FRET reads energy transfer from a long-lived donor to a nearby acceptor.

The target of test [13] is T2, Peroxisome proliferator-activated receptor gamma/Nuclear receptor coactivator 3. Nature of the test: TR-FRET dose response biochemical High Throughput Screening assay for agonists of the steroid receptor coactivator 3 (SRC-3) recruitment by the peroxisome proliferator-activated receptor gamma (PPAR gamma): non-selective agonists. [Related pubchem assays: 1301 (Confirmation screen.), 1048 (Primary screen.)]. The format is functional.

In test [14] the target is T4, Peroxisome proliferator-activated receptor gamma/Nuclear receptor coactivator 1. The test is described as follows: TR-FRET dose response biochemical High Throughput Screening assay for agonists of the steroid receptor coactivator 1 (SRC-1) recruitment by the peroxisome proliferator-activated receptor gamma (PPAR gamma): non-selective agonists. [Related pubchem assays (depositor defined):AID1300, AID1808, AID504735, AID631]. The format is protein assay.

In test [15] the target is Estrogen receptor beta (Homo sapiens, UniProt Q92731).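 Also: recombinant ER-beta bound to coactivator SRC1 peptide in presence of estradiol agonist; inhibitors block coactivator peptide binding and lower the FRET signal.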
Estrogen receptor beta, sequence (Q92731 whole entry): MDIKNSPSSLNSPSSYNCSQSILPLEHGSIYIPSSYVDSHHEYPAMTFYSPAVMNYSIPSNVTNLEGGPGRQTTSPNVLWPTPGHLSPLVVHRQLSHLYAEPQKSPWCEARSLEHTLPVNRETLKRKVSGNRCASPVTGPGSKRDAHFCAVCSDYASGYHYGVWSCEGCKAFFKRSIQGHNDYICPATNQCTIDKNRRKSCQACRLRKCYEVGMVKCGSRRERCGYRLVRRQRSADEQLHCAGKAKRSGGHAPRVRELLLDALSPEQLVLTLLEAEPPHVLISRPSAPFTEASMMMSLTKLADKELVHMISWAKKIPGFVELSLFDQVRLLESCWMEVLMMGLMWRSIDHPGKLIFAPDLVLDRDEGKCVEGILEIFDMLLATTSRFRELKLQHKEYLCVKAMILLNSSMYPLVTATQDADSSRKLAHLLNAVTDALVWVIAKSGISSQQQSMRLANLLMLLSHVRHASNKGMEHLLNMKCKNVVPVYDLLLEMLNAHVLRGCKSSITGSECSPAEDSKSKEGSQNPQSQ
Test [16] can be described thus: Luminescence Cell-Based Dose Response HTS to Identify Inhibitors of 5'UTR Stem-Loop Driven Prion Protein mRNA Translation in H4 Neuroglioblastoma Cells. [Related pubchem assays: 1827 (Project Summary), 1813 (Primary HTS)]. It counts as functional.
Test [17] is described as follows: luciferase reporter signal suppression in cells – H4 neuroglioma cells, luminescence, dose response (AID 1990). The format is functional, cell-based. On the technique in general: In a reporter assay the amount or activity of a reporter protein is the signal.
In test [18] the target is T6, High affinity choline transporter 1 (Homo sapiens, UniProt Q9GZV3).
T6 sequence (Q9GZV3 whole entry): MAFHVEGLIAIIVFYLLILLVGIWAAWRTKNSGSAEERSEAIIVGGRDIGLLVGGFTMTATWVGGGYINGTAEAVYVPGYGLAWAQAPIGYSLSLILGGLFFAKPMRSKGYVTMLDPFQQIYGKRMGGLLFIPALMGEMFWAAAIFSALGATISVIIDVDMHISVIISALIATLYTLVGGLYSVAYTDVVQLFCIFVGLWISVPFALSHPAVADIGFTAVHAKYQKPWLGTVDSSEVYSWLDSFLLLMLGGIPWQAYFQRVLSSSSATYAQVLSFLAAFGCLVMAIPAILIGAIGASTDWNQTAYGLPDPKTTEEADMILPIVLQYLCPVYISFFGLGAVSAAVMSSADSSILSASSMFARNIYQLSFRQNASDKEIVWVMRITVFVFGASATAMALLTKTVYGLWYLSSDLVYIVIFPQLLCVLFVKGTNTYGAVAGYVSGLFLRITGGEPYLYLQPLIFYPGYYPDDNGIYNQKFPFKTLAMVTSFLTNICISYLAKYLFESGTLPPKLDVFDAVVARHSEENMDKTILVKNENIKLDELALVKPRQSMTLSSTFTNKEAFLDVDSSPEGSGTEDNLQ
Nature of the test: human choline transporter blockers, potency – cell-based, 5-point CRC, membrane potential dye, dose response (AID 504840). It counts as functional.

A short description of test [19]: Luminescence Cell-Based Dose Confirmation HTS to Identify Inhibitors of Platelet Dense Granule Release. [Related pubchem assays: 1663 (Primary HTS), 1678 (Summary of Project)]. It counts as functional.
For test [20], the target named is Luciferin 4-monooxygenase (Photinus pyralis, UniProt P08659). The test is described as follows: inhibition of purified Photinus pyralis luciferase – biochemical, luminescence, dose response (AID 1891).
Luciferin 4-monooxygenase, sequence (P08659 whole entry): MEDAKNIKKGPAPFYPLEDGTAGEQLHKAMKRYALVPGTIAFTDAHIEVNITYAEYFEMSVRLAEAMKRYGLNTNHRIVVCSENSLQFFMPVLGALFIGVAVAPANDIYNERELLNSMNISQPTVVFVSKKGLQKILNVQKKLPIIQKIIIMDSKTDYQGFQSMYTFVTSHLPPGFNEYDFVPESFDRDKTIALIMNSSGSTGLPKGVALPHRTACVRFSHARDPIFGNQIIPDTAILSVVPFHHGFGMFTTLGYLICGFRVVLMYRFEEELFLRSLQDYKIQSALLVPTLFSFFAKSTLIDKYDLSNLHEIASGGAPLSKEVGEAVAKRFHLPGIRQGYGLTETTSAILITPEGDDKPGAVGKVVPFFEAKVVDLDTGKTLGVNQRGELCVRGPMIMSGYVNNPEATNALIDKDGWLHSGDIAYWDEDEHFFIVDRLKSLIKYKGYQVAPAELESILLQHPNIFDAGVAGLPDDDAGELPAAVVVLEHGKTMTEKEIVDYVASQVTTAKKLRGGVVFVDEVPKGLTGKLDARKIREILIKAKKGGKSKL
Test [21] in a line: alpha-synuclein stem-loop luciferase translation blockers – H4 neuroglioma cells, luminescence, confirmation (AID 1988). The format is functional, cell-based.
Test [22] has as its target Cytochrome P450 2D6 (Homo sapiens, UniProt P10635).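 Also: CYP2D6 member of a cytochrome P450 panel assay.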
Test [23] concerns the target T7, Cytochrome P450 1A2 (Homo sapiens, UniProt P05177).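 Also: PubChem cytochrome P450 panel assay, CYP1A2 panel member.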
T7 sequence (P05177 whole entry): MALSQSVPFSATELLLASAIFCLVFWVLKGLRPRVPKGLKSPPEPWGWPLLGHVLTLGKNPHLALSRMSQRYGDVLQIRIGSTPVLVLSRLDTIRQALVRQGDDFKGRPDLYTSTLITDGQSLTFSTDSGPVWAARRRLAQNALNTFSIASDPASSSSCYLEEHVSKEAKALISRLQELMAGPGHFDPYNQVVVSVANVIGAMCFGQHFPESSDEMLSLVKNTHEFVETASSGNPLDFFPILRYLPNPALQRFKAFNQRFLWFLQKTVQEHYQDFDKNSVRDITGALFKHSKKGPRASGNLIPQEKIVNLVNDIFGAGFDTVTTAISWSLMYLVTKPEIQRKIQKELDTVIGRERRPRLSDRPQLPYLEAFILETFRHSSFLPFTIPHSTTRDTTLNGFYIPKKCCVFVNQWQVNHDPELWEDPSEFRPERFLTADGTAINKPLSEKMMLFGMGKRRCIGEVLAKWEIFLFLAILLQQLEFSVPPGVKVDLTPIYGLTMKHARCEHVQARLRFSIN

Test [24] deals with Paired box protein Pax-8 (Homo sapiens, UniProt Q06710). Nature of the test: PAX8 transcriptional activity inhibition in RMG-I – RMG-I cells, luciferase, cherry-pick, dose response (AID 687027).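 Also: luciferase reporter driven by Pax8 target thyroperoxidase promoter measured by SteadyGlo luminescence.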 The format is functional, cell-based.
Test [25] can be described thus: OVCAR-3 cell viability loss – plate reader, dry powder samples, PAX8 inhibitor project, dose response (AID 743044). The format is functional, cell-based.
For test [26], the target named is T8, Rac GTPase-activating protein 1 (Homo sapiens, UniProt Q9H0H5).
T8 sequence (Q9H0H5 whole entry): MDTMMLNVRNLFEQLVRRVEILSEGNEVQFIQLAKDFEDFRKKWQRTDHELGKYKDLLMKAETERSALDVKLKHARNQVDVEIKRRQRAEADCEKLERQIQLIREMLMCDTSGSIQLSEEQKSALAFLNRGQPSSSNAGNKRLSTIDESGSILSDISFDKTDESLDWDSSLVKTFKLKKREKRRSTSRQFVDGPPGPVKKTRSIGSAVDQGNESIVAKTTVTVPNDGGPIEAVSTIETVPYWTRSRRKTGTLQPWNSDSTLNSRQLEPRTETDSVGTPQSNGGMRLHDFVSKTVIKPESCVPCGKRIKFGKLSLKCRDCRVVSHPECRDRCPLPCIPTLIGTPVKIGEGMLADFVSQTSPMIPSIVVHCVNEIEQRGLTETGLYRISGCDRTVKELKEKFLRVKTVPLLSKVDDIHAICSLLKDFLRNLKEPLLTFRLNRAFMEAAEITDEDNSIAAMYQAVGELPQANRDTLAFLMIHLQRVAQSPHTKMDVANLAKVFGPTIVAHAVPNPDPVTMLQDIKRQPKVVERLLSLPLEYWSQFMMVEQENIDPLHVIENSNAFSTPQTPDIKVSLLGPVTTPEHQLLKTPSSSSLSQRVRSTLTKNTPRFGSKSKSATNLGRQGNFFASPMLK
The test is described as follows: blockers of MgcRacGAP-driven Rac1 GTP hydrolysis – biochemical, ADP Hunter fluorescence, primary and confirmatory, confirmation (AID 624330). The format is functional.

T3 sequence (P37231 whole entry): as the sequence (P37231 whole entry) above
T3 sequence (Q15596 whole entry, further chain): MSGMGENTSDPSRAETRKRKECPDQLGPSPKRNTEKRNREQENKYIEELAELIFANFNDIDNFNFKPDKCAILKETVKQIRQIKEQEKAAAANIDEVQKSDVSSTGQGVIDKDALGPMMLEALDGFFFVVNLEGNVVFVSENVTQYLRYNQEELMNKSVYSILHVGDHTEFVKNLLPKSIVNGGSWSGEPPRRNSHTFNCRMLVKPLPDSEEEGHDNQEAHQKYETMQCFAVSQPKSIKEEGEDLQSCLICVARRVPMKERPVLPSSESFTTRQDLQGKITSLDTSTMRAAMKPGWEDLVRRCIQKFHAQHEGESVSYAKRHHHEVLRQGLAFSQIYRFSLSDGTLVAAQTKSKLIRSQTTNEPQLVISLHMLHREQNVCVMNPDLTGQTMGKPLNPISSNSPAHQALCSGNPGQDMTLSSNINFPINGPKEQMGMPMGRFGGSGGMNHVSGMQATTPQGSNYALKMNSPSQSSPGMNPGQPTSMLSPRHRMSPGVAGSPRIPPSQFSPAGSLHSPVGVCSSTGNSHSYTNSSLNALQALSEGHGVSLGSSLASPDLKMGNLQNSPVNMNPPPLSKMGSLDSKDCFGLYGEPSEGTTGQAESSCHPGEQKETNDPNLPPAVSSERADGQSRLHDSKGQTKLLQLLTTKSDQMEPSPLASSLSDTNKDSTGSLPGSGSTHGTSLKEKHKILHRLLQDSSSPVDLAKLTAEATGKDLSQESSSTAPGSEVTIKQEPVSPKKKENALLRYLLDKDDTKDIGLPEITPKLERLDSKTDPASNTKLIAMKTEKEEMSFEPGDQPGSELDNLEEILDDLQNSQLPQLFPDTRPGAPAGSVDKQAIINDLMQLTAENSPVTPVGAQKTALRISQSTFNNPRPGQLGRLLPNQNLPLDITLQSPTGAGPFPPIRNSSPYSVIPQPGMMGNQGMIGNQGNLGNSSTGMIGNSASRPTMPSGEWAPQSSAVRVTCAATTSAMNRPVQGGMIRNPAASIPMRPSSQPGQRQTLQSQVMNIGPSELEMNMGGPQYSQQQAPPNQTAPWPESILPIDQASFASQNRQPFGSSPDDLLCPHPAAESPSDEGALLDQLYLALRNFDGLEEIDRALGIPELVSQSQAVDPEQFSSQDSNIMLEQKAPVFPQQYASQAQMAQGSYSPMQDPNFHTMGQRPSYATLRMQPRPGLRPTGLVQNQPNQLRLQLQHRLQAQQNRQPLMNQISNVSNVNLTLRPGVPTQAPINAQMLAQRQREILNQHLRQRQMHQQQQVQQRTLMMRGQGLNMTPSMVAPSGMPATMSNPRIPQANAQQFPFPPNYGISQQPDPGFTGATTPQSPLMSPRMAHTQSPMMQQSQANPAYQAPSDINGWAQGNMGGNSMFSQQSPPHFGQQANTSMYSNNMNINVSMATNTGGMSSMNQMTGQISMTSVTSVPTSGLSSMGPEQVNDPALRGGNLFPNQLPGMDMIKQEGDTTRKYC

`COc1ccccc1CSc1nc(-c2ccc([N+](=O)[O-])cc2)c[nH]1`: in test [1], the IC50 is > 50 µM (not active).

`COc1ccc(CNCC(O)COc2ccc(C)cc2[N+](=O)[O-])cc1` (configuration not stated): the EC50 in test [2] is > 50 µM (active).

`COc1ccc(-c2noc(-c3ccc(Br)o3)n2)cc1OC`: the EC50 in test [3] is reported as 68.6 µM (not active); in [4], 63 µM (not active); in test [5] it was 64.1 µM (not active).

`COc1ccc([N+](=O)[O-])cc1Nc1c2ccccc2nc2ccccc12`: the IC50 in test [6] is > 80 µM (inactive). The EC50 in test [7] and in test [8] was > 59.6 µM (inactive) each time. Also, the AC50 in test [9] is 0.956 µM (active).

Regarding `Cc1cc(C)cc(NCc2cc3c(cc2[N+](=O)[O-])OCO3)c1`, the IC50 in test [10] was > 100 µM (inconclusive). Also, the cytotoxic concentration (CC50) in test [11] is > 40 µM (active).

`CCCC(=O)Nc1nc(C)c(C(C)=O)s1`: the EC50 is 137 µM (not active) in test [12], > 79.4 µM (not active) in test [13] and > 79.4 µM (inactive) in test [14].

As to `Cc1ccc(C)c(Cn2c(=O)n(-c3ccc(CC(=O)NCc4ccco4)cc3)c(=O)c3sccc32)c1`, the IC50 in test [15] is recorded as > 50 µM (not active).

As for `Cc1ccc(C2=NN=C(NC(=O)C(F)(F)F)SC2)cc1`, the IC50 in test [1] is > 50 µM (not active).

With `COc1cc2c(cc1OC)-c1cc(NC3CCCCCCC3)nc(=O)n1CC2`, the EC50 in test [16] is 0.18 µM (active); in test [7] it was > 59.7 µM (inactive); in test [17], 28.4 µM (active); in test [19], 6.92 µM (active); in [20], > 112 µM (not active); in test [8] it was > 59.7 µM (inactive). The EC50 in [21] is > 120 µM (not active). Also, in test [18], the IC50 is 7.99 µM (active).

Take `Cc1ccc(-c2ccc(/C=C(\C#N)C(N)=S)o2)c([N+](=O)[O-])c1`: the EC50 in test [3], in test [4] and in test [5] was > 79.4 µM (not active) in each case.

With `Cc1ccc2nc(SCC(=O)NCc3cccs3)c(C#N)cc2c1`, the AC50 was 0.316 µM (inconclusive) in test [22] and 0.708 µM (inconclusive) in test [23]. In addition, the EC50 in test [3] is given as 20.8 µM (not active); in test [4], 11.6 µM (not active); in test [5], 19 µM (not active).

For `COc1ccc(N2C(=O)CC(N3CC=C(c4ccccc4)CC3)C2=O)cc1` (configuration not stated), in test [2], the EC50 is > 50 µM (active).

As to `Oc1ncnc2c1c(-c1ccccc1)cn2-c1ccc(F)cc1`, the EC50 in test [7] and in test [8] was > 59.6 µM (inactive) each time.

`Cn1c(=O)c2c(ncn2CCCNC2=CC(C)(C)CC(=O)C2)n(C)c1=O`: the IC50 in [15] was > 50 µM (not active).

As to `O=c1cc(O)n(-c2ccc(F)cc2)c(=S)[nH]1`, the IC50 in test [10] is > 100 µM (active).

Consider `CC(C)CNC(CC(=O)O)c1ccccc1` (configuration not stated), for which the EC50 in test [2] was > 50 µM (active).

On to `C[C@H](CO)N1C[C@H](C)[C@@H](CN(C)Cc2ccc(C(F)(F)F)cc2)OCCCC[C@H](C)Oc2ccc(NC(=O)Cc3ccccc3)cc2C1=O`, for which the AC50 was 9.66 µM (active) in test [24] and 30.6 µM (active) in test [25].

As for `C/C(=C\C(=O)c1cccnc1)Nc1ccc(O)cc1`, the IC50 in [10] is 26.2 µM (inconclusive); in test [26] it was 14.7 µM (active).
